Source: ChEMBL document CHEMBL5614428, “Synthesis and antibacterial activities of heterocyclic ring-fused 20(S)-protopanaxadiol derivatives” (Bioorg Med Chem, 2024)
Converted amounts (≈) assume the structure as drawn. The source made the active and inactive calls. The calls are words filed in the database; no cut-off is given here.

Legend:
Staphylococcus aureus [1] = assay: Antibacterial activity against methicillin-resistant Staphylococcus aureus NRS-100 assessed as inhibition of bacterial growth incubated for 18 hrs by two fold serial dilution assay; type: functional
Staphylococcus aureus [2] = assay: Antibacterial activity against methicillin-resistant Staphylococcus aureus NRS-108 assessed as inhibition of bacterial growth incubated for 18 hrs by two fold serial dilution assay; type: functional
Staphylococcus aureus [3] = assay: Antibacterial activity against methicillin-resistant Staphylococcus aureus NRS-70 assessed as inhibition of bacterial growth incubated for 18 hrs by two fold serial dilution assay; type: functional
Staphylococcus aureus [4] = assay: Antibacterial activity against methicillin-resistant Staphylococcus aureus NRS-1 assessed as inhibition of bacterial growth incubated for 18 hrs by two fold serial dilution assay; type: functional
Staphylococcus aureus [5] = assay: Antibacterial activity against Staphylococcus aureus Newman assessed as inhibition of bacterial growth incubated for 18 hrs by two fold serial dilution assay; type: functional
[6] = Toxicity in Zebrafish at 25 to 75 mg/kg,ip administration measured upto 120 hrs; type: organism-based, Danio rerio; conditions: in vivo, dose 25-75 mg/kg
Staphylococcus aureus [7] = assay: Antibacterial activity against methicillin-resistant Staphylococcus aureus USA300 infected in zebrafish assessed as increase in survival rate at 25 mg/kg,ip administration measured for 5 days; type: functional, organism-based; conditions: time 5.0 day
Staphylococcus aureus [8] = assay: Antibacterial activity against Staphylococcus aureus Newman assessed as fold increase in inhibition of bacterial growth incubated for 18 hrs by two fold serial dilution assay relative to (S)-4-((1S,3aR,3bR,5aR,12aR,12bR,14R,14aR)-14-hydroxy-3a,3b,6,6,12a-pentamethyl-1,2,3,3a,3b,4,5,5a,6,7,12,12a,12b,13,14,14a-hexadecahydrocyclopenta[5,6]naphtho[2,1-b]carbazol-1-yl)pentane-1,4-diol; type: functional
Staphylococcus aureus [9] = assay: Antibacterial activity against methicillin-resistant Staphylococcus aureus XJ017 assessed as inhibition of bacterial growth incubated for 18 hrs by two fold serial dilution assay; type: functional
Staphylococcus aureus [10] = assay: Antibacterial activity against methicillin-resistant Staphylococcus aureus NRS-271 assessed as inhibition of bacterial growth incubated for 18 hrs by two fold serial dilution assay; type: functional
Staphylococcus aureus [11] = assay: Antibacterial activity against methicillin-resistant Staphylococcus aureus XJ036 assessed as inhibition of bacterial growth incubated for 18 hrs by two fold serial dilution assay; type: functional
Staphylococcus aureus [12] = assay: Antibacterial activity against methicillin-resistant Staphylococcus aureus USA300 infected in zebrafish assessed as increase in survival rate at 50 mg/kg,ip administration measured for 5 days relative to Vancomycin; type: functional, organism-based; conditions: time 5.0 day
Staphylococcus aureus [13] = assay: Antibacterial activity against methicillin-resistant Staphylococcus aureus USA300 assessed as inhibition of bacterial growth incubated for 18 hrs by two fold serial dilution assay; type: functional
Staphylococcus aureus [14] = assay: Antibacterial activity against methicillin-resistant Staphylococcus aureus USA300 assessed as fold increase in inhibition of bacterial growth incubated for 18 hrs by two fold serial dilution assay relative to (S)-4-((1S,3aR,3bR,5aR,13aR,13bR,15R,15aR)-15-hydroxy-3a,3b,6,6,13a-pentamethyl-2,3,3a,3b,4,5,5a,6,13,13a,13b,14,15,15a-tetradecahydro-1H-cyclopenta[5,6]naphtho[1,2-b]phenazin-1-yl)pentane-1,4-diol; type: functional

| Structure (SMILES) | MIC (Staphylococcus aureus [1]) [µg/mL] | MIC (Staphylococcus aureus [2]) [µg/mL] | MIC (Staphylococcus aureus [3]) [µg/mL] | MIC (Staphylococcus aureus [4]) [µg/mL] | MIC (Staphylococcus aureus [5]) [µg/mL] | Activity [6] | Activity (Staphylococcus aureus [7]) | fold change (FC) (Staphylococcus aureus [8]) | MIC (Staphylococcus aureus [9]) [µg/mL] | MIC (Staphylococcus aureus [10]) [µg/mL] | MIC (Staphylococcus aureus [11]) [µg/mL] | Activity (Staphylococcus aureus [12]) | MIC (Staphylococcus aureus [13]) [µg/mL] | fold change (FC) (Staphylococcus aureus [14]) |
| --- | --- | --- | --- | --- | --- | --- | --- | --- | --- | --- | --- | --- | --- | --- |
| CC1(C)c2nc3ccccc3nc2C[C@]2(C)[C@H]3C[C@@H](O)[C@@H]4[C@@H]([C@@](C)(O)CCC(=O)Nc5nccs5)CC[C@@]4(C)[C@]3(C)CC[C@@H]12 | 4 (≈ 6.48 µM) | 2 (≈ 3.24 µM) | 1 (≈ 1.62 µM) | 1 (≈ 1.62 µM) | 1 (≈ 1.62 µM) | Non-Toxic | Active | 4 | 0.5 (≈ 0.811 µM) | 1 (≈ 1.62 µM) | 1 (≈ 1.62 µM) | Active | 1 (≈ 1.62 µM) |  |
| CC1(C)c2nc3ccccc3nc2C[C@]2(C)[C@H]3C[C@@H](O)[C@@H]4[C@@H]([C@@](C)(O)CCC(N)=O)CC[C@@]4(C)[C@]3(C)CC[C@@H]12 | 4 (≈ 7.49 µM) | 4 (≈ 7.49 µM) | 4 (≈ 7.49 µM) | 4 (≈ 7.49 µM) | 4 (≈ 7.49 µM) |  |  |  | 4 (≈ 7.49 µM) | 4 (≈ 7.49 µM) | 4 (≈ 7.49 µM) |  | 4 (≈ 7.49 µM) | 2 |
